Drawing on PubChem BioAssay (NCI), this text covers GI50 and TGI for 14 compounds.

The structures appear in SMILES notation. Where “and” joins values, the source holds several entries; their conditions need not be identical. Equal values may be shown once.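 In this assay, cells in 96-well plates receive the compound at five concentrations for 48 hours. Endpoints are linearly interpolated between the surrounding concentrations. GI50: concentration for 50% inhibition of growth. TGI is the concentration that stops growth completely.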

Some test systems named below: CCRF-CEM leukemia; HOP-92 NSCLC; NCI-H23 lung; NCI-H522 lung; OVCAR-8 ovarian; SF-295 CNS; SK-MEL-2 melanoma; SNB-75 CNS; SW-620 colon; U251 CNS.
What all share (assay): inhibition of tumour cell growth, NCI panel, 48 h

As to `O=C(Oc1ccc(O)c2c(=O)n3c(cc12)[nH]c1ccccc13)c1ccccc1`, the GI50 was 3.71 µM in the assay on CCRF-CEM leukemia; 23.8 µM with HOP-92 NSCLC; 16 µM in the assay on NCI-H23 lung; 6.21 µM in the assay on NCI-H522 lung; 11.1 µM with OVCAR-8 ovarian; 40.8 µM in the assay on SF-295 CNS. Moreover, the GI50 in the assay on SK-MEL-2 melanoma was 21 µM; in the assay on SNB-75 CNS, 28.3 µM; in the assay on SW-620 colon it was 5.1 µM; in the assay on U251 CNS it was 10.1 µM. Also, the TGI is 20.7 µM with CCRF-CEM leukemia; 53.4 µM in the assay with HOP-92 NSCLC; 37.7 µM in the assay on NCI-H23 lung; 41.2 µM in the assay on NCI-H522 lung; 32.5 µM in the assay on OVCAR-8 ovarian; over 100 µM in the assay with SF-295 CNS. The TGI in the assay with SK-MEL-2 melanoma was over 100 µM; in the assay with SNB-75 CNS it was over 100 µM; in the assay on SW-620 colon it was 26.9 µM; in the assay on U251 CNS, 27.4 µM.
On to `CCC(=O)c1cn(C)c(=O)c2ccccc12`, for which the TGI in the assay on CCRF-CEM leukemia, in the assay with HOP-92 NSCLC, in the assay on NCI-H23 lung, in the assay on NCI-H522 lung, with OVCAR-8 ovarian and in the assay with SF-295 CNS was over 100 µM throughout. Further, the TGI in the assay with SK-MEL-2 melanoma, with SNB-75 CNS, in the assay on SW-620 colon and in the assay on U251 CNS was over 100 µM in each case.
On to `O=[N+]([O-])c1ccc2[nH]cc(-c3c4ccsc4cc4[nH]c5ccc([N+](=O)[O-])cc5c34)c2c1`, for which the GI50 with CCRF-CEM leukemia was 1.05 µM; with HOP-92 NSCLC it was 0.882 µM; in the assay on NCI-H23 lung it was 1.21 µM; with NCI-H522 lung it was 0.423 µM; with OVCAR-8 ovarian it was 1.25 µM; in the assay with SF-295 CNS, 0.629 µM. In addition, the GI50 was 0.861 µM with SK-MEL-2 melanoma, 0.618 µM in the assay on SNB-75 CNS, 1.07 µM in the assay with SW-620 colon and 1.1 µM with U251 CNS. In addition, the TGI was 23.3 µM in the assay with CCRF-CEM leukemia; 6.94 µM with HOP-92 NSCLC; 5.62 µM in the assay on NCI-H23 lung; 3.42 µM in the assay with NCI-H522 lung; 19.7 µM with OVCAR-8 ovarian; 3.09 µM in the assay with SF-295 CNS. In addition, the TGI in the assay on SK-MEL-2 melanoma came to 4.18 µM; with SNB-75 CNS it was 3.03 µM; with SW-620 colon it was 8.37 µM; with U251 CNS, 16.6 µM.
Turning to `O=C(Nc1ccc(Cl)cc1)Nc1ccc(Cl)c(Cl)c1`, the GI50 is 2.25 µM with CCRF-CEM leukemia; 1.62 µM in the assay with HOP-92 NSCLC; 3.34 µM in the assay on NCI-H23 lung; 4.15 µM with NCI-H522 lung; 5.02 µM in the assay with OVCAR-8 ovarian; 4.02 µM with SF-295 CNS. For the same compound, the GI50 in the assay with SK-MEL-2 melanoma was 3.07 µM; with SNB-75 CNS, 2.59 µM; with SW-620 colon it was 3.95 µM; with U251 CNS, 3.52 µM. The TGI in the assay on CCRF-CEM leukemia is 7.8 µM; in the assay on HOP-92 NSCLC, 5.46 µM; in the assay on NCI-H23 lung, over 100 µM; with NCI-H522 lung it was over 100 µM; in the assay with OVCAR-8 ovarian, over 100 µM; in the assay on SF-295 CNS, over 100 µM. The TGI in the assay on SK-MEL-2 melanoma was 32.8 µM; in the assay with SNB-75 CNS, over 100 µM; with SW-620 colon, over 100 µM; with U251 CNS it was over 100 µM.
On to `O=c1ccn(C2OC(CO)C(O)C2O)c(=O)[nH]1` (centres undefined), for which the GI50 in the assay on CCRF-CEM leukemia, in the assay with HOP-92 NSCLC, in the assay on NCI-H23 lung, in the assay on OVCAR-8 ovarian, in the assay on SF-295 CNS and with SK-MEL-2 melanoma was over 1000 µM throughout. The GI50 with SNB-75 CNS is 789 µM and > 10 µM; in the assay with SW-620 colon it was over 1000 µM; with U251 CNS, over 1000 µM. Also, the TGI in the assay with CCRF-CEM leukemia, in the assay on HOP-92 NSCLC, with NCI-H23 lung, with NCI-H522 lung, with OVCAR-8 ovarian and with SF-295 CNS was over 1000 µM in each case. In addition, the TGI in the assay on SK-MEL-2 melanoma, in the assay with SNB-75 CNS, in the assay on SW-620 colon and in the assay on U251 CNS was over 1000 µM in each case.
For the compound `c1ccc2c(c1)[I+]c1ccccc1-2`, the GI50 in the assay with CCRF-CEM leukemia was over 50 µM; in the assay with HOP-92 NSCLC it was 18.9 µM; in the assay on NCI-H23 lung it was 22.9 µM; in the assay with NCI-H522 lung, over 50 µM; with OVCAR-8 ovarian, over 50 µM; with SF-295 CNS it was 35 µM. Moreover, the GI50 with SK-MEL-2 melanoma is over 50 µM; with SNB-75 CNS, 8.95 µM; in the assay with SW-620 colon it was over 50 µM; with U251 CNS, 25.5 µM. The TGI in the assay on CCRF-CEM leukemia, in the assay with HOP-92 NSCLC, in the assay on NCI-H23 lung, in the assay with NCI-H522 lung, with OVCAR-8 ovarian and in the assay with SF-295 CNS was over 50 µM throughout. Also, the TGI in the assay with SK-MEL-2 melanoma, with SNB-75 CNS, in the assay with SW-620 colon and in the assay on U251 CNS was over 50 µM each time.
Take `CC(C)=CC(C(O)c1ccccc1)S(=O)(=O)c1nccn1C` (centres undefined): the TGI with CCRF-CEM leukemia, in the assay on HOP-92 NSCLC, in the assay on NCI-H23 lung, in the assay with NCI-H522 lung, in the assay with OVCAR-8 ovarian and in the assay with SF-295 CNS was over 100 µM in each case. In addition, the TGI in the assay on SK-MEL-2 melanoma, in the assay on SNB-75 CNS, in the assay on SW-620 colon and in the assay with U251 CNS was over 100 µM each time.
On to `NC(=O)c1c[se]c(C2OC(CO)C(O)C2O)n1` (centres undefined), for which the TGI with CCRF-CEM leukemia is over 100 µM; in the assay on HOP-92 NSCLC, over 100 µM; in the assay with NCI-H23 lung it was over 100 µM; in the assay on NCI-H522 lung, over 100 µM; with OVCAR-8 ovarian it was over 100 µM; in the assay with SF-295 CNS, over 49.8 µM. The TGI with SK-MEL-2 melanoma, with SNB-75 CNS, with SW-620 colon and in the assay with U251 CNS was over 100 µM throughout.
As to `CCCCCCNC(=O)C1=C(C)NC(C)=C(C(=O)NCCCCCC)C1`, the TGI in the assay on CCRF-CEM leukemia, with HOP-92 NSCLC, in the assay on NCI-H23 lung, in the assay with NCI-H522 lung, in the assay with OVCAR-8 ovarian and with SF-295 CNS was over 100 µM throughout. Also, the TGI in the assay with SK-MEL-2 melanoma, in the assay on SNB-75 CNS, with SW-620 colon and in the assay with U251 CNS was over 100 µM in each case.
Consider `C=CCc1cc2cccc(OC)c2oc1=O`, for which the TGI in the assay with CCRF-CEM leukemia, with HOP-92 NSCLC, with NCI-H23 lung, with NCI-H522 lung, in the assay on OVCAR-8 ovarian and in the assay on SF-295 CNS was over 100 µM each time. The TGI in the assay with SK-MEL-2 melanoma, in the assay on SNB-75 CNS, with SW-620 colon and in the assay with U251 CNS was over 100 µM each time.
With `CC(=O)O/N=C/c1ncccc1CO`, the TGI in the assay with CCRF-CEM leukemia, with HOP-92 NSCLC, in the assay with NCI-H23 lung, in the assay with NCI-H522 lung, in the assay with OVCAR-8 ovarian and with SF-295 CNS was over 100 µM in each case. Moreover, the TGI in the assay with SK-MEL-2 melanoma, in the assay with SNB-75 CNS, in the assay with SW-620 colon and in the assay with U251 CNS was over 100 µM in each case.
As for `CCOc1ccccc1NC(=O)/C=C1\NC(=O)CS1`, the TGI in the assay on CCRF-CEM leukemia, in the assay on HOP-92 NSCLC, in the assay with NCI-H23 lung, with NCI-H522 lung, in the assay with OVCAR-8 ovarian and with SF-295 CNS was over 100 µM in each case. For the same compound, the TGI in the assay with SK-MEL-2 melanoma was over 100 µM; in the assay on SNB-75 CNS, 98.7 µM; in the assay with SW-620 colon, over 100 µM; with U251 CNS it was over 100 µM.
`CCCCNc1nc(NC(C)(C)C)nc(NC(C)(C)C)n1`: the GI50 is 3.18 µM in the assay on CCRF-CEM leukemia; 1.38 µM in the assay on HOP-92 NSCLC; 5.89 µM in the assay with NCI-H23 lung; 6.32 µM in the assay on NCI-H522 lung; 4.74 µM in the assay with OVCAR-8 ovarian; 6.03 µM in the assay with SF-295 CNS. In addition, the GI50 with SK-MEL-2 melanoma was 15.4 µM; in the assay with SNB-75 CNS it was 12.8 µM; in the assay with SW-620 colon, 7.2 µM; with U251 CNS, 5.92 µM. The TGI was over 100 µM in the assay on CCRF-CEM leukemia; 24.2 µM with HOP-92 NSCLC; over 100 µM in the assay with NCI-H23 lung; over 100 µM in the assay with NCI-H522 lung; over 100 µM in the assay on OVCAR-8 ovarian; over 100 µM in the assay on SF-295 CNS. Further, the TGI in the assay with SK-MEL-2 melanoma is over 100 µM; in the assay with SNB-75 CNS it was 68.7 µM; in the assay on SW-620 colon it was over 100 µM; in the assay on U251 CNS it was 36.7 µM.
On to `CN(C)CCNc1nc2ccccc2c2c1c1c(n2Cc2ccccc2)-c2ccccc2C1=O`, for which the GI50 in the assay with CCRF-CEM leukemia was 7.86 µM; with HOP-92 NSCLC, 6.19 µM; in the assay with NCI-H23 lung, 14.8 µM; with NCI-H522 lung, 11 µM; in the assay on OVCAR-8 ovarian it was 6.14 µM; in the assay on SF-295 CNS it was 9.33 µM. Besides, the GI50 was 10.9 µM in the assay on SK-MEL-2 melanoma, 14.4 µM in the assay on SNB-75 CNS, 7.96 µM with SW-620 colon and 14.4 µM in the assay with U251 CNS. The TGI in the assay with CCRF-CEM leukemia stood at 24.1 µM; in the assay on HOP-92 NSCLC, 21.2 µM; in the assay with NCI-H23 lung, 39.7 µM; in the assay with NCI-H522 lung, 35.3 µM; with OVCAR-8 ovarian, 52.2 µM; in the assay on SF-295 CNS it was 24.9 µM. The TGI came to 28.9 µM in the assay on SK-MEL-2 melanoma, 28.9 µM with SNB-75 CNS, 24 µM in the assay with SW-620 colon and 29.2 µM in the assay with U251 CNS.
